According to US12703698B2, “Inhibitors of interleukin-1 receptor-associated kinases 1 and 4” (The University of Rochester, priority 2020, dated 2026):

Legend:
[1] = system: IL1b signaling events in THP-1 cells; assay: Western blot of IL1b signaling events in THP-1 cells; format: cell-based, human; details: THP-1 cells at 10 and 30 minutes; hIL-1β 10 ng/mL, UR241-2 4 μM, WB 30 μg/lane; FIG. 1E
Description: Whole cell lysates of THP1 treated with vehicle, hIL-1B (10 ng/mL), UR241-1 (10 μM) and UR241-2 (4 μM) for 10 minutes and 30 minutes. 30 μg proteins were electrophoresed and probed with phospho-/native p65, phospho-p38, pAKT, and GAPDH.

murine MLL-AF9 leukemia = assay: Colony forming activity in methylcellulose culture, MLL-AF9 leukemia; format: cell-based
THP-1 cells = assay: Colony formation of THP-1 cells in vitro; format: cell-based, human; details: FIGS. 4A-4C
Description: FIGS. 4A, 4B and 4C show the effect of MCC950 (reference), UR241-1, and UR241-2 on the colony formation potential of THP-1 cells in vitro.

MDS-L cells = assay: Colony formation of MDS-L cells in vitro; format: cell-based; details: for colony formation potential of MDS-L cells: FIGS. 6A-6B; for colony formation of MDS-L cells: FIGS. 7A-7C
Description: FIGS. 6A and 6B show the effect of UR241-1 and UR241-2 on the colony formation potential of MDS-L cells in vitro.

SMILES	inhibition of IL1b signaling events [1]	inhibition of colony forming activity (murine MLL-AF9 leukemia; UR241-2 4 uM with MCC950 100 nM, FIG. 1F)	inhibition of colony forming activity (murine MLL-AF9 leukemia; UR241-2 4 uM without MCC950, FIG. 1F)	colony formation potential of THP-1 cells (THP-1 cells)	colony formation potential of MDS-L cells (MDS-L cells)	colony formation of MDS-L cells (MDS-L cells)
COc1cc(N2CCS(=O)(=O)CC2)ccc1NC(=O)c1cccc(-c2cc[nH]n2)n1 [UR241-2]	inhibition	inhibition of colony forming activity	inhibition of colony forming activity	suppressed the colonies formed by THP-1 cells dose-dependently	suppressed the colonies formed by MDS-L cells dose dependently	inhibited colony formation of MDS-L cells in vitro, dose-dependently
COc1cc(N2CCS(=O)(=O)CC2)ccc1NC(=O)c1cccc(-c2cc[nH]n2)c1 [UR241-1]	–	–	–	suppressed the colonies formed by THP-1 cells dose-dependently	suppressed the colonies formed by MDS-L cells dose dependently	–
CC(C)(O)c1coc(S(=O)(=O)NC(=O)Nc2c3c(cc4c2CCC4)CCC3)c1 [MCC950, reference compound]	–	–	–	suppressed the colonies formed by THP-1 cells dose-dependently	–	inhibited colony formation of MDS-L cells in vitro, dose-dependently
CC[C@@H]1[C@H](F)C(=O)N[C@@H]1COc1nccc2cc(C(N)=O)c(OC)cc12 [PF06650833, reference compound]	–	–	–	–	–	inhibited colony formation of MDS-L cells in vitro, dose-dependently
